Species on record: Rattus norvegicus
Assay: DrugMatrix - Regimen: Daily Repeat
Type: toxicity, organism-based, Sprague-Dawley
Design: regimen Daily Repeat, gender Male, age 6-8 weeks
Conditions: in vivo, po, route oral GAVAGE, vehicle 100 % WATER; for ABSOLUTE BASOPHIL / ABSOLUTE EOSINOPHIL / ABSOLUTE LYMPHOCYTE / ABSOLUTE MONOCYTE / ABSOLUTE SEGMENTED NEUTROPHIL / BASOPHIL / EOSINOPHIL / ERYTHROCYTE COUNT / HEMATOCRIT / HEMOGLOBIN / LEUKOCYTE COUNT / LYMPHOCYTE / MEAN CORPUSCULAR HEMOGLOBIN / MEAN CORPUSCULAR HEMOGLOBIN CONCENTRATION / MEAN CORPUSCULAR VOLUME / MONOCYTE / NEUTROPHIL / NUCLEATED RED BLOOD CELLS / PLATELET COUNT: tissue Blood; for ALANINE AMINOTRANSFERASE / ALKALINE PHOSPHATASE / ASPARTATE AMINOTRANSFERASE / BLOOD UREA NITROGEN / CARBON DIOXIDE / CHLORIDE / CHOLESTEROL / CREATINE PHOSPHOKINASE / CREATININE / GLUCOSE / LACTATE DEHYDROGENASE / LIPASE / PHOSPHORUS / POTASSIUM / SODIUM / TOTAL BILIRUBIN / TOTAL PROTEIN / URIC ACID: tissue Plasma
[1] = 0 mg/kg, 72 h, dose level Control, time 3 day
[2] = 0 mg/kg, 120 h, dose level Control, time 5 day
[3] = 46 mg/kg, 72 h, dose level Low, time 3 day
[4] = 46 mg/kg, 120 h, dose level Low, time 5 day

Structure (SMILES): O=C1NC(=O)C(c2ccccc2)(c2ccccc2)N1 [PHENYTOIN]
- ABSOLUTE BASOPHIL [1]: 0 CELLS/uL
- ABSOLUTE EOSINOPHIL [1]: 123.17 CELLS/uL
- ABSOLUTE LYMPHOCYTE [1]: 12677.83 CELLS/uL
- ABSOLUTE MONOCYTE [1]: 66.17 CELLS/uL
- ABSOLUTE SEGMENTED NEUTROPHIL [1]: 1149.5 CELLS/uL
- BASOPHIL [1]: 0%
- EOSINOPHIL [1]: 0.83%
- ERYTHROCYTE COUNT [1]: 5.26 x10E6/uL
- HEMATOCRIT [1]: 33.07%
- HEMOGLOBIN [1]: 13.43 G/DL
- LEUKOCYTE COUNT [1]: 14.02 x10E3/uL
- LYMPHOCYTE [1]: 90.17%
- MEAN CORPUSCULAR HEMOGLOBIN [1]: 25.62 pg
- MEAN CORPUSCULAR HEMOGLOBIN CONCENTRATION [1]: 40.65 G/DL
- MEAN CORPUSCULAR VOLUME [1]: 63 fL
- MONOCYTE [1]: 0.5%
- NEUTROPHIL [1]: 8.5%
- NUCLEATED RED BLOOD CELLS [1]: 0.17 /100WBC
- PLATELET COUNT [1]: 1142.83 x10E3/uL
- ALANINE AMINOTRANSFERASE [1]: 45.17 u/L
- ALKALINE PHOSPHATASE [1]: 340.17 u/L
- ASPARTATE AMINOTRANSFERASE [1]: 77.33 u/L
- BLOOD UREA NITROGEN [1]: 14.67 mg/dL
- CARBON DIOXIDE [1]: 28.67 mmol/L
- CHLORIDE [1]: 101.17 MEQ/L
- CHOLESTEROL [1]: 77.67 mg/dL
- CREATINE PHOSPHOKINASE [1]: 263.67 u/L
- CREATININE [1]: 0.15 mg/dL
- GLUCOSE [1]: 169.33 mg/dL
- LACTATE DEHYDROGENASE [1]: 230 u/L
- LIPASE [1]: 9.67 u/L
- PHOSPHORUS [1]: 11.8 mg/dL
- POTASSIUM [1]: 5.91 MEQ/L
- SODIUM [1]: 142.88 MEQ/L
- TOTAL BILIRUBIN [1]: 0.22 mg/dL
- TOTAL PROTEIN [1]: 5.7 G/DL
- URIC ACID [1]: 1.35 mg/dL
- ABSOLUTE BASOPHIL [2]: 0 CELLS/uL
- ABSOLUTE EOSINOPHIL [2]: 125 CELLS/uL
- ABSOLUTE LYMPHOCYTE [2]: 13809 CELLS/uL
- ABSOLUTE MONOCYTE [2]: 351 CELLS/uL
- ABSOLUTE SEGMENTED NEUTROPHIL [2]: 1581.67 CELLS/uL
- BASOPHIL [2]: 0%
- EOSINOPHIL [2]: 0.67%
- ERYTHROCYTE COUNT [2]: 5.53 x10E6/uL
- HEMATOCRIT [2]: 34.83%
- HEMOGLOBIN [2]: 13.9 G/DL
- LEUKOCYTE COUNT [2]: 15.87 x10E3/uL
- LYMPHOCYTE [2]: 87.5%
- MEAN CORPUSCULAR HEMOGLOBIN [2]: 25.25 pg
- MEAN CORPUSCULAR HEMOGLOBIN CONCENTRATION [2]: 40.08 G/DL
- MEAN CORPUSCULAR VOLUME [2]: 63.05 fL
- MONOCYTE [2]: 2.17%
- NEUTROPHIL [2]: 9.67%
- NUCLEATED RED BLOOD CELLS [2]: 0 /100WBC
- PLATELET COUNT [2]: 1044 x10E3/uL
- ALANINE AMINOTRANSFERASE [2]: 50.67 u/L
- ALKALINE PHOSPHATASE [2]: 395 u/L
- ASPARTATE AMINOTRANSFERASE [2]: 86 u/L
- BLOOD UREA NITROGEN [2]: 15.33 mg/dL
- CARBON DIOXIDE [2]: 29.33 mmol/L
- CHLORIDE [2]: 101.5 MEQ/L
- CHOLESTEROL [2]: 71.33 mg/dL
- CREATINE PHOSPHOKINASE [2]: 323.17 u/L
- CREATININE [2]: 0.18 mg/dL
- GLUCOSE [2]: 145.67 mg/dL
- LACTATE DEHYDROGENASE [2]: 389.5 u/L
- LIPASE [2]: 9.83 u/L
- PHOSPHORUS [2]: 11.35 mg/dL
- POTASSIUM [2]: 6.39 MEQ/L
- SODIUM [2]: 142.77 MEQ/L
- TOTAL BILIRUBIN [2]: 0.18 mg/dL
- TOTAL PROTEIN [2]: 6.1 G/DL
- URIC ACID [2]: 1.52 mg/dL
- ABSOLUTE BASOPHIL [3]: 0 CELLS/uL
- ABSOLUTE EOSINOPHIL [3]: 0 CELLS/uL
- ABSOLUTE LYMPHOCYTE [3]: 15884.67 CELLS/uL
- ABSOLUTE MONOCYTE [3]: 0 CELLS/uL
- ABSOLUTE SEGMENTED NEUTROPHIL [3]: 1248.67 CELLS/uL
- BASOPHIL [3]: 0%
- EOSINOPHIL [3]: 0%
- ERYTHROCYTE COUNT [3]: 5.58 x10E6/uL
- HEMATOCRIT [3]: 35.6%
- HEMOGLOBIN [3]: 14.27 G/DL
- LEUKOCYTE COUNT [3]: 17.13 x10E3/uL
- LYMPHOCYTE [3]: 93%
- MEAN CORPUSCULAR HEMOGLOBIN [3]: 25.63 pg
- MEAN CORPUSCULAR HEMOGLOBIN CONCENTRATION [3]: 40.1 G/DL
- MEAN CORPUSCULAR VOLUME [3]: 63.9 fL
- MONOCYTE [3]: 0%
- NEUTROPHIL [3]: 7%
- NUCLEATED RED BLOOD CELLS [3]: 0 /100WBC
- PLATELET COUNT [3]: 1336.33 x10E3/uL
- ALANINE AMINOTRANSFERASE [3]: 48.67 u/L
- ALKALINE PHOSPHATASE [3]: 344.67 u/L
- ASPARTATE AMINOTRANSFERASE [3]: 69.33 u/L
- BLOOD UREA NITROGEN [3]: 13.67 mg/dL
- CARBON DIOXIDE [3]: 33.67 mmol/L
- CHLORIDE [3]: 99.67 MEQ/L
- CHOLESTEROL [3]: 68.67 mg/dL
- CREATINE PHOSPHOKINASE [3]: 151.67 u/L
- CREATININE [3]: 0.12 mg/dL
- GLUCOSE [3]: 146 mg/dL
- LACTATE DEHYDROGENASE [3]: 81.33 u/L
- LIPASE [3]: 10 u/L
- PHOSPHORUS [3]: 11.37 mg/dL
- POTASSIUM [3]: 6.96 MEQ/L
- SODIUM [3]: 142.8 MEQ/L
- TOTAL BILIRUBIN [3]: 0.2 mg/dL
- TOTAL PROTEIN [3]: 5.7 G/DL
- URIC ACID [3]: 1.53 mg/dL
- ABSOLUTE BASOPHIL [4]: 0 CELLS/uL
- ABSOLUTE EOSINOPHIL [4]: 40.67 CELLS/uL
- ABSOLUTE LYMPHOCYTE [4]: 11032 CELLS/uL
- ABSOLUTE MONOCYTE [4]: 233.67 CELLS/uL
- ABSOLUTE SEGMENTED NEUTROPHIL [4]: 793.67 CELLS/uL
- BASOPHIL [4]: 0%
- EOSINOPHIL [4]: 0.33%
- ERYTHROCYTE COUNT [4]: 5.47 x10E6/uL
- HEMATOCRIT [4]: 33.93%
- HEMOGLOBIN [4]: 13.63 G/DL
- LEUKOCYTE COUNT [4]: 12.1 x10E3/uL
- LYMPHOCYTE [4]: 91.33%
- MEAN CORPUSCULAR HEMOGLOBIN [4]: 24.93 pg
- MEAN CORPUSCULAR HEMOGLOBIN CONCENTRATION [4]: 40.17 G/DL
- MEAN CORPUSCULAR VOLUME [4]: 62 fL
- MONOCYTE [4]: 2%
- NEUTROPHIL [4]: 6.33%
- NUCLEATED RED BLOOD CELLS [4]: 0 /100WBC
- PLATELET COUNT [4]: 1416.33 x10E3/uL
- ALANINE AMINOTRANSFERASE [4]: 54 u/L
- ALKALINE PHOSPHATASE [4]: 319.67 u/L
- ASPARTATE AMINOTRANSFERASE [4]: 264.33 u/L
- BLOOD UREA NITROGEN [4]: 17 mg/dL
- CARBON DIOXIDE [4]: 24.67 mmol/L
- CHLORIDE [4]: 104.33 MEQ/L
- CHOLESTEROL [4]: 61.67 mg/dL
- CREATINE PHOSPHOKINASE [4]: 2442.67 u/L
- CREATININE [4]: 0.27 mg/dL
- GLUCOSE [4]: 152 mg/dL
- LACTATE DEHYDROGENASE [4]: 827.67 u/L
- LIPASE [4]: 10.67 u/L
- PHOSPHORUS [4]: 13.43 mg/dL
- POTASSIUM [4]: 7.35 MEQ/L
- SODIUM [4]: 144.9 MEQ/L
- TOTAL BILIRUBIN [4]: 0.2 mg/dL
- TOTAL PROTEIN [4]: 6 G/DL
- URIC ACID [4]: 3.3 mg/dL

Reference: ChEMBL document CHEMBL3885881, “DrugMatrix”
